According to patent publication US8501953B2, “PKM2 modulators for use in the treatment of cancer” (Agios Pharmaceuticals, Inc, priority 2009, dated 2013):

Target: PKM2 (Homo sapiens, UniProt P14618)
Assay: PKM2 Assay (activation; LDH-coupled, NADH absorbance at 340 nm)
Format: biochemical
Conditions: PKM2 50 ng/well, ADP 0.7 mM, PEP 0.15 mM, no FBP in Reaction Mix
Protocol: • PKM2 stock enzyme solution was diluted in Reaction Buffer • 2 μL of compound was added into each well first, and then 180 μL of the Reaction Mix was added. • Reaction mixture with compound (without ADP) were incubated for 30 minutes at 4° C. • Plates were re-equilibrated to room temperature prior to adding 20 μL ADP to initiate the reaction. • Reaction progress was measured as changes in absorbance at 340 nm wavelength at room temperature (25° C.) Reaction Mix: PKM2 (50 ng/well), ADP (0.7 mM), PEP (0.15 mM), NADH (180 μM), LDH (2 units) in Reaction Buffer Reaction Buffer: 100 mM KCl, 50 mM Tris pH 7.5, 5 mM MgCl2, 1 mM DTT, 0.03% BSA.

PKM2, sequence (P14618 whole entry): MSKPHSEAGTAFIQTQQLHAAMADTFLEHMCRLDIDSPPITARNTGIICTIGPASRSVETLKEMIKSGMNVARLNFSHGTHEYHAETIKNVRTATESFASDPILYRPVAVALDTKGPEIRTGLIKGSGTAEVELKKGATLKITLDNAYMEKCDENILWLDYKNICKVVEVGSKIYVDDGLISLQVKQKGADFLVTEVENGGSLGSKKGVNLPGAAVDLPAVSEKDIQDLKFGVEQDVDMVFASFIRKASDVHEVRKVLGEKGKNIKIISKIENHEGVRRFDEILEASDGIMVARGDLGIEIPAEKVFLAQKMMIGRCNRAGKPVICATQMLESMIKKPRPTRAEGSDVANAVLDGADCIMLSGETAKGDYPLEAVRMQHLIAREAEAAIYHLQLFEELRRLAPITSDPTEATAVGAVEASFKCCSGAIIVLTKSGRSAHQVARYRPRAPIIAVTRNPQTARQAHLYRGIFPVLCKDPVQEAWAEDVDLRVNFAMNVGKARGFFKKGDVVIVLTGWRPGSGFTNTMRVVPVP

| AC50 | Compound |
| --- | --- |
| 1 to 10 µM | O=c1sc2ccc(S(=O)(=O)Nc3ccc(Cl)cc3)cc2s1 |
| 10 to 50 µM | Cn1c(=O)oc2cc(S(=O)(=O)Nc3ccccn3)ccc21 |
